This note sets out measurements from ChEMBL document CHEMBL1132534, “Predicting relative binding free energies of tacrine-huperzine A hybrids as inhibitors of acetylcholinesterase” (J Med Chem, 1999).

This test deals with Acetylcholinesterase (Homo sapiens) (UniProt P22303). Kind of test: Inhibitory activity against acetylcholinesterase compared to the IC50 of (-)-9M-HTH.
Sequence of Acetylcholinesterase (Homo sapiens) (P22303 whole entry): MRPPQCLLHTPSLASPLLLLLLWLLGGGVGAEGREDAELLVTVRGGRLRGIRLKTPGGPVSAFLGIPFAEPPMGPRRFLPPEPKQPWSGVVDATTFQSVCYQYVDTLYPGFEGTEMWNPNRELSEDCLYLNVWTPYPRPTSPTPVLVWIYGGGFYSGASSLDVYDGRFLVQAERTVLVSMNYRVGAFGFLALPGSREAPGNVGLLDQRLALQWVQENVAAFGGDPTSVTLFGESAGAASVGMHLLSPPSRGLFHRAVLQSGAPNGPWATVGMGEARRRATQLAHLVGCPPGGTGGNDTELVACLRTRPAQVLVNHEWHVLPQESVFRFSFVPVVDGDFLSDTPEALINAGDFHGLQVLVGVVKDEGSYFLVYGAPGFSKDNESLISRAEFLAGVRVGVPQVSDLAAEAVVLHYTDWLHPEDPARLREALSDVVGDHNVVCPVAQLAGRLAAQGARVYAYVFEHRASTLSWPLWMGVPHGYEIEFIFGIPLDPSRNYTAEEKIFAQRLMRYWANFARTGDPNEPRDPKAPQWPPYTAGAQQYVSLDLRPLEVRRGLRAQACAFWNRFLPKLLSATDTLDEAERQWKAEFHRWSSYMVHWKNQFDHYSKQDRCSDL

Molecule `CC1=C[C@@H]2Cc3nc4cc(F)ccc4c(N)c3[C@H](C1)C2` had a Fold IC50 of 15.
